In brackets after ≈: the same amount, converted by molar mass. Where two headings read alike, the source gives them in different places.
Tests used:
enterococci = test: Minimum inhibitory concentration, microdilution broth method, enterococci; type: cell-based; settings: Mueller-Hinton broth, 18-22 hours at 35° C.; for MIC: Enterococcus faecalis
Summary of the method: (§1)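 MIC by microdilution, NCCLS M7-A5. Media: MH broth (staph, enterococci); MH + 5% lysed horse blood (strep). Strains incl. methicillin-, penicillin- and/or vancomycin-resistant clinical isolates.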

[1] = target: T1, S. aureus Uridine-diphosphate-N-acetvimuramoyl: L-alanine lipase, MurC (Staphylococcus aureus, UniProt Q2FXJ0); test: biochemical; settings: (S) S. aureus enzyme; for IC50: read-out: MurC IC50 (converted)
T1 sequence (Q2FXJ0 1-437): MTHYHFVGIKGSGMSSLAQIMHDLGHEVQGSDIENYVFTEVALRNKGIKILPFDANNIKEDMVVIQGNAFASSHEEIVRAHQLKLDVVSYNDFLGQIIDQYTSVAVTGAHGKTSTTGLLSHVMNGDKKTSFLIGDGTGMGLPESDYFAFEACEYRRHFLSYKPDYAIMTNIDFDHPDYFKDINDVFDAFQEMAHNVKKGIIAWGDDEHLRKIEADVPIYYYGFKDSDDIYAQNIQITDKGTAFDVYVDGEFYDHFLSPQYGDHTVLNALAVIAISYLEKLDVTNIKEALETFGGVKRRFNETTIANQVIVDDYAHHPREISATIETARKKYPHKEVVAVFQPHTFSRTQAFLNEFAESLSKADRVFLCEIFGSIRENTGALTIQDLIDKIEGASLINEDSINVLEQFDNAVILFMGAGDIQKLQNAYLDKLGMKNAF
Procedure: S. aureus and E. coli Uridine-diphosphate-N-acetvimuramoyl: L-alanine lipase, MurC
Preparation of Enzyme Solution:
A 1 mg/mL stock solution of MurC is prepared in a buffer consisting of 20 mM Tris/HCl (pH 8.5) with 2.5 μM BME. The stock solution is further diluted with the buffer to give a final enzyme concentration of 100 μg/mL for the E. coli stock solution and 70 μg/mL for the S. aureus stock solution.
Preparation of Test Compound Solutions:
All test solutions are prepared in DMSO as 10 mg/mL, then diluted with 50 mM Tris/HCl (pH 8.5) to 100 μg/mL.
Preparation of Stop Solution:
The stop solution is prepared by stirring 1 part 4.2% ammonium molydbate in 4N HCl with 2 parts 0.045% malachite green for 30 min.
In this evaluation, the inhibitory activity of a test compound against MurC, the enzyme which catalyzes the third step of bacterial cell wall bioxynthesis is determined. Experiments are performed by adding 2.5 μl buffer, 2.5 μl 0.5M NH4SO2, 5 μl 2 μM L-Ala, 5 μl enzyme solution and 6.5 μl test compound solution to each well in a 96-well microplate. After a pre-incubation period of 10 mins. at 23° C., 3.75 μl of a 0.75 μM solution of UDP-MurNac is added to each well. Following an incubation period of 10 mins. at 37° C., 210 μl stop solution and 50 μl of a 34% w/v sodium citrate solution are added and color is allowed to develop for 10 mins. at 23° C. (Lanzetta et al., Analytical Biochemistry, 1979, 95) Optical density readings are taken at 660 nm using a Molecular Devices Spectra Max 250 with Soft Max software. Controls are performed using the same procedure and omitting the addition of UDP-MurNac. […]
Using these values the IC50 is determined by linear regression analysis.

staphylococci = test: Minimum inhibitory concentration, microdilution broth method, staphylococci; type: cell-based; settings: Mueller-Hinton broth, 18-22 hours at 35° C.; for MIC: Staphylococcus aureus
Summary of the method: as §1

[2] = target: T2, S. aureus Enopyruvyl-UPD-N-acetylglucosamine reductase, Mur B (Staphylococcus aureus, UniProt P61431); test: biochemical; settings: (S) S. aureus enzyme; for IC50: read-out: MurB IC50 (converted)
T2 sequence (P61431 1-307): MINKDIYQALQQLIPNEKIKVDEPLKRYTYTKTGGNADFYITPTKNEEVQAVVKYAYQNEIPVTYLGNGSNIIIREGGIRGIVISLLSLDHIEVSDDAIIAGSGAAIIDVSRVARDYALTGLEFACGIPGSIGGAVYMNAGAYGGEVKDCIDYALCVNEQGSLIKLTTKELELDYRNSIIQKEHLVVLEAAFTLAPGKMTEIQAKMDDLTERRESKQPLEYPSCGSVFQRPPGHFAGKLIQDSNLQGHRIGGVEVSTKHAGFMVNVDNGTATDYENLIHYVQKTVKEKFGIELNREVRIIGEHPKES

[3] = target: E. coli Enopyruvyl-UPD-N-acetylglucosamine reductase, Mur B (Escherichia coli, UniProt P08373); test: biochemical; settings: (E) E. coli enzyme; for IC50: read-out: MurB IC50 (converted)
[4] = E. faecalis GC 2242, read-out: MIC E. faecalis GC 2242
[5] = E. faecalis GC 4555, read-out: MIC E. faecalis GC 4555
[6] = S. aureus GC 1131, read-out: MIC S. aureus GC 1131
[7] = S. aureus GC 4543, read-out: MIC S. aureus GC 4543

E. coli Enopyruvyl-UPD-N-acetylglucosamine reductase, Mur B, sequence (P08373 whole entry): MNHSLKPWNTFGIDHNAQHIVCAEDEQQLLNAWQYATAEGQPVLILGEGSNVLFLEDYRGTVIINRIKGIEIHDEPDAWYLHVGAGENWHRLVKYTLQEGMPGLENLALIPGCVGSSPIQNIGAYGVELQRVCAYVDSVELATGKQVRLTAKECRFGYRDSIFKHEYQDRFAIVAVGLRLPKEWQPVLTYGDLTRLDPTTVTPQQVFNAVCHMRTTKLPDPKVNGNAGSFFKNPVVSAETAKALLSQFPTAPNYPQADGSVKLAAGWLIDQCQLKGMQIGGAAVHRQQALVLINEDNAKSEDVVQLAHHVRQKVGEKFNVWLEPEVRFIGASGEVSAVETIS

MIC E. faecalis GC 2242 (enterococci; E. faecalis GC 2242) | MIC E. faecalis GC 4555 (enterococci; E. faecalis GC 4555) | MurC IC50 [1] | MIC S. aureus GC 1131 (staphylococci; S. aureus GC 1131) | MIC S. aureus GC 4543 (staphylococci; S. aureus GC 4543) | MurB IC50 [2] | Compound | MIC (enterococci; [4]) | MIC (enterococci; [5]) | IC50 [1] | MIC (staphylococci; [6]) | MIC (staphylococci; [7]) | IC50 [2] | MurB IC50 [3] | IC50 [3]
– | – | – | – | – | – | O=C1O/C(=C\c2cccc(-c3cc(Cl)cc(Cl)c3)c2)C(O)=C1c1cc(Cl)cc(Cl)c1 [Example 136] | 0.5 µg/mL (≈ 1.05 µM) | 1 µg/mL (≈ 2.09 µM) | > 52.3 µM | 0.25 µg/mL (≈ 0.523 µM) | 0.25 µg/mL (≈ 0.523 µM) | 4.18 µM | 3 µg/mL | –
– | – | – | – | – | – | COc1cc(/C=C2\OC(=O)C(c3cc(Cl)cc(Cl)c3)=C2O)ccc1-c1ccccc1C(F)(F)F [Example 33] | 1 µg/mL (≈ 1.97 µM) | 2 µg/mL (≈ 3.94 µM) | > 49.3 µM | 0.5 µg/mL (≈ 0.986 µM) | 0.5 µg/mL (≈ 0.986 µM) | 3.94 µM | – | 3.94 µM
– | – | – | – | – | – | Cc1ccccc1-c1ccc(/C=C2\OC(=O)C(c3cc(Cl)cc(Cl)c3)=C2O)cc1C [Example 29] | 0.5 µg/mL (≈ 1.14 µM) | 2 µg/mL (≈ 4.57 µM) | 54.9 µM | 0.5 µg/mL (≈ 1.14 µM) | 0.5 µg/mL (≈ 1.14 µM) | 4.57 µM | – | 4.57 µM
– | – | – | – | – | – | COc1ccccc1-c1ccc(/C=C2\OC(=O)C(c3cc(Cl)cc(Cl)c3)=C2O)cc1C [Example 24] | 4 µg/mL (≈ 8.82 µM) | 4 µg/mL (≈ 8.82 µM) | 26.5 µM | 2 µg/mL (≈ 4.41 µM) | 1 µg/mL (≈ 2.21 µM) | 4.41 µM | – | 8.82 µM
– | – | – | – | – | – | COc1ccccc1-c1ccc(/C=C2\OC(=O)C(c3ccc(Cl)c(Cl)c3)=C2O)cc1OC [Example 20] | 16 µg/mL (≈ 34.1 µM) | 16 µg/mL (≈ 34.1 µM) | 32 µM | 4 µg/mL (≈ 8.52 µM) | 4 µg/mL (≈ 8.52 µM) | 6.39 µM | – | 6.39 µM
– | – | – | – | – | – | COc1cc(/C=C2\OC(=O)C(c3cccc(Cl)c3)=C2O)ccc1-c1ccccc1C(F)(F)F [Example 32] | 4 µg/mL (≈ 8.46 µM) | 8 µg/mL (≈ 16.9 µM) | 25.4 µM | 2 µg/mL (≈ 4.23 µM) | 2 µg/mL (≈ 4.23 µM) | 6.34 µM | – | 12.7 µM
64 µg/mL (≈ 147 µM) | 64 µg/mL (≈ 147 µM) | 21 (S) μg/mL | 32 µg/mL (≈ 73.3 µM) | 32 µg/mL (≈ 73.3 µM) | 6 (S) μg/mL | O=C1O/C(=C\c2ccc(N3CCOCC3)c(F)c2)C(O)=C1c1cc(Cl)cc(Cl)c1 [Example 34] | – | – | – | – | – | – | – | –
– | – | – | – | – | – | COc1ccc(/C=C2\OC(=O)C(c3cc(Cl)cc(Cl)c3)=C2O)c2ccccc12 [Example 36] | 4 µg/mL (≈ 9.68 µM) | 8 µg/mL (≈ 19.4 µM) | 12.1 µM | 4 µg/mL (≈ 9.68 µM) | 4 µg/mL (≈ 9.68 µM) | 7.26 µM | – | –
– | – | – | – | – | – | O=C1O/C(=C\c2ccc(N3CCOCC3)c3ccccc23)C(O)=C1c1cccc(Cl)c1 [Example 37] | 16 µg/mL (≈ 36.9 µM) | 32 µg/mL (≈ 73.8 µM) | 23 µM | 16 µg/mL (≈ 36.9 µM) | 16 µg/mL (≈ 36.9 µM) | 23 µM | – | –
8 µg/mL (≈ 21.1 µM) | 16 µg/mL (≈ 42.2 µM) | 8 (S) μg/mL | 8 µg/mL (≈ 21.1 µM) | 8 µg/mL (≈ 21.1 µM) | 6 (S) μg/mL | COc1ccc(C=C2OC(=O)C(c3cccc(Cl)c3)=C2O)c2ccccc12 [Example 35] | – | – | – | – | – | – | – | –

Compound | MIC E. faecalis GC 2242 (enterococci; E. faecalis GC 2242) | MIC E. faecalis GC 4555 (enterococci; E. faecalis GC 4555) | MurC IC50 [1] | MIC S. aureus GC 1131 (staphylococci; S. aureus GC 1131) | MIC S. aureus GC 4543 (staphylococci; S. aureus GC 4543) | MurB IC50 [2] | MIC (enterococci; [4]) | MIC (enterococci; [5]) | IC50 [1] | MIC (staphylococci; [6]) | MIC (staphylococci; [7]) | IC50 [2] | MurB IC50 [3] | IC50 [3]
O=C1O/C(=C\c2cccc3ccccc23)C(O)=C1c1cccc(C=NO)c1 [Example 77] | >128 µg/mL | >128 µg/mL | 15 µg/mL | >128 µg/mL | 64 µg/mL (≈ 179 µM) | 10 µg/mL | – | – | – | – | – | – | 21 µg/mL | –

— patent US7495027B2, “3-aryl-4-hydroxyfuranone compounds and the human and animal health use thereof” (Wyeth, priority 2003, dated 2009)
